Data as given in ChEMBL document CHEMBL1201862, “PubChem BioAssay data set” (2004).
Where “and” joins values, the source holds several entries; their conditions need not be identical. Identical values can stand only once.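 Five concentrations, 48 hours, 96-well plates. At the GI50, growth is halved.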 Calls of active or inactive are those of the source. No stated cut-off is given here; in the data, active = GI50 up to about 1.1 µM and inactive = higher.

Columns and labels:
Experiment in all cases: inhibition of tumour cell growth, NCI panel, 48 h
HCT-116 = test system: HCT-116
SNB-19 = test system: SNB-19
ACHN = test system: ACHN
A549 = test system: A549
A498 = test system: A498
KM12 = test system: KM12
UO-31 = test system: UO-31
COLO 205 = test system: COLO 205
SW-620 = test system: SW-620
OVCAR-3 = test system: OVCAR-3
HCT-15 = test system: HCT-15
OVCAR-8 = test system: OVCAR-8
SF-295 = test system: SF-295
CAKI-1 = test system: CAKI-1
M14 = test system: M14
SF-539 = test system: SF-539
SNB-75 = test system: SNB-75

Measured: GI50

c1ccc(C2[C@@H]3CCCc4ccccc4C3=NN2c2ccccc2)cc1 (stereo not given in full)
52.5 µM: HCT-15
inactive: HCT-116 42 µM | SNB-19 > 100 µM | ACHN > 100 µM | A549 > 100 µM | A498 > 100 µM | KM12 > 100 µM | UO-31 > 100 µM | COLO 205 > 100 µM | SW-620 > 100 µM | OVCAR-3 31.8 µM | OVCAR-8 > 100 µM | SF-295 > 100 µM

COC(=O)C12C3C4C1C1C2C3C41C(=O)OC(C)(C)C (stereo not given)
> 100 µM: HCT-15
inactive: CAKI-1 > 100 µM | HCT-116 26.7 µM | SNB-19 > 100 µM | M14 > 100 µM | ACHN > 100 µM | A549 > 64.3 µM | SF-539 > 100 µM | A498 > 100 µM | KM12 > 100 µM | UO-31 > 100 µM | COLO 205 > 64 µM | SW-620 > 36.2 µM | OVCAR-3 > 100 µM | SNB-75 > 100 µM | OVCAR-8 > 81.3 µM | SF-295 > 100 µM

O/N=C/c1cc2c(cc1Br)OCO2
> 100 µM: HCT-15
inactive: CAKI-1 > 100 µM | HCT-116 > 100 µM | SNB-19 > 100 µM | M14 > 100 µM | ACHN > 100 µM | A549 > 100 µM | SF-539 > 100 µM | A498 > 100 µM | KM12 > 100 µM | UO-31 > 100 µM | COLO 205 > 100 µM | SW-620 > 100 µM | OVCAR-3 > 100 µM | SNB-75 > 100 µM | OVCAR-8 > 100 µM | SF-295 > 100 µM

CSC1CC2C(CC1(C)O)C2(C)C (stereo not given)
inactive: CAKI-1 > 100 µM | HCT-116 > 100 µM | SNB-19 > 100 µM | M14 > 100 µM | ACHN > 100 µM | A549 > 100 µM | SF-539 > 100 µM | A498 > 100 µM | KM12 > 100 µM | UO-31 > 100 µM and 65 µM | COLO 205 > 100 µM | SW-620 > 100 µM | OVCAR-8 > 100 µM
> 100 µM: HCT-15

Cc1nc2ccccc2c(=O)n1NC(=S)Nc1cccc(Cl)c1
> 100 µM: HCT-15
inactive: CAKI-1 > 100 µM | HCT-116 > 100 µM | M14 > 100 µM | ACHN > 100 µM | A549 > 100 µM | SF-539 > 100 µM | A498 > 100 µM | KM12 > 100 µM | UO-31 > 100 µM | COLO 205 > 100 µM | SW-620 > 100 µM | SNB-75 72.9 µM | OVCAR-8 > 100 µM | SF-295 > 100 µM

O=C(Nc1ccc(S(=O)(=O)N[C@@H](C(=O)O)c2ccccc2)cc1)c1ccc(F)cc1
> 100 µM: HCT-15
inactive: CAKI-1 > 100 µM | SNB-19 > 100 µM | M14 > 100 µM | ACHN > 100 µM | A549 > 100 µM | SF-539 > 100 µM | A498 > 100 µM | KM12 > 100 µM | UO-31 > 100 µM | COLO 205 > 100 µM | SW-620 > 100 µM | OVCAR-3 > 100 µM | SNB-75 > 100 µM | OVCAR-8 > 100 µM | SF-295 > 100 µM

C[C@]12CCC(=O)C=C1CC[C@@H]1C2CC[C@@]2(C)C1CC[C@@H]2OC(=O)C12OC1CCC2=O (stereo not given in full)
17 µM: HCT-15
inactive: HCT-116 15.7 µM | SNB-19 19.6 µM | M14 18.5 µM | ACHN 15.6 µM | A549 25 µM | SF-539 20.3 µM | A498 18 µM | KM12 18.7 µM | UO-31 16.5 µM | COLO 205 17.9 µM | SW-620 16.9 µM | OVCAR-3 18.9 µM | SNB-75 16.7 µM | OVCAR-8 17.9 µM | SF-295 16.7 µM

CC1=N/C(=C\c2c(O)ccc3ccccc23)C(=O)O1
inactive: HCT-116 > 100 µM | SNB-19 > 100 µM | M14 > 100 µM | ACHN > 100 µM | A549 > 100 µM | SF-539 > 100 µM | A498 > 100 µM | KM12 > 100 µM | UO-31 > 100 µM | COLO 205 > 100 µM | SW-620 > 100 µM | OVCAR-8 > 100 µM | SF-295 > 100 µM
active: SNB-75 0.849 µM
> 100 µM: HCT-15

CC(c1ccccc1)N1CC(C)(c2ccccc2)N(O)C(c2ccccc2)C1C (stereo not given)
inactive: HCT-116 3.38 µM | SNB-19 5.92 µM | ACHN 3.59 µM | A549 7.01 µM | SF-539 5.73 µM | A498 18 µM | KM12 8 µM | UO-31 3.23 µM | COLO 205 11.1 µM | SW-620 12.1 µM | OVCAR-3 11.6 µM | SNB-75 6.03 µM | OVCAR-8 9.91 µM | SF-295 7.85 µM

COc1cc([C@@H]2c3cc4c(cc3[C@@H](NC(=O)c3cccc([N+](=O)[O-])c3)C3COC(=O)[C@@H]32)OCO4)cc(OC)c1O (stereo not given in full)
active: CAKI-1 0.237 µM | SNB-19 0.366 µM | M14 0.621 µM | ACHN 0.128 µM | A549 0.0442 µM | SF-539 0.294 µM | SW-620 0.509 µM | OVCAR-8 0.721 µM | SF-295 0.245 µM
1.28 µM: HCT-15
inactive: HCT-116 1.5 µM | KM12 1.47 µM | UO-31 3.89 µM | COLO 205 4.66 µM | OVCAR-3 3.34 µM | SNB-75 1.31 µM

COc1ccc(C(=O)C(c2ccc(OC)cc2)C2OC(=O)C(Cl)=C2Cl)cc1 (stereo not given)
> 100 µM: HCT-15
inactive: CAKI-1 > 100 µM | HCT-116 > 100 µM | SNB-19 > 100 µM | M14 > 100 µM | ACHN > 100 µM | A549 > 100 µM | SF-539 > 100 µM | KM12 > 100 µM | UO-31 > 100 µM | SW-620 > 100 µM | OVCAR-3 > 100 µM | OVCAR-8 84.1 µM | SF-295 > 100 µM

COC(=O)CCC1CCc2c(OC)ccc(OC)c2C1=O (stereo not given)
> 100 µM: HCT-15
inactive: SNB-19 > 100 µM | M14 > 100 µM | ACHN > 100 µM | A549 > 100 µM | SF-539 > 100 µM | A498 > 10 µM | KM12 > 100 µM | UO-31 > 100 µM | COLO 205 > 100 µM | SW-620 > 100 µM | OVCAR-3 > 100 µM | SNB-75 > 100 µM | OVCAR-8 > 100 µM | SF-295 > 100 µM

Cc1ccccc1C(C#N)/C(=N/NC(N)=S)C(=O)Nc1c(C)cccc1C (stereo not given)
inactive: HCT-116 > 100 µM | SNB-19 > 100 µM | M14 > 100 µM | ACHN > 100 µM | A549 75.9 µM | KM12 > 100 µM | UO-31 > 100 µM | COLO 205 > 100 µM | SW-620 > 100 µM | OVCAR-3 > 100 µM | SNB-75 > 100 µM | OVCAR-8 > 100 µM | SF-295 > 100 µM
